Reference: PubChem BioAssay AID1918958 (Molecular Pharmacology Branch, DTP, NCI, 2023)

Test system: NCI-H196 complex spheroid viability
Assay: Anticancer human tumor NCI-H196 cell line growth inhibition [LSD1];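 note: spheroids exposed to agents for 7 days before readout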;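 for viability, T/C: 100% = DMSO vehicle control viability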
Settings: for IC50: curve of first compound; for viability, T/C: stronger effect = lower value
Source text: Multicellular complex tumor spheroid response to LSD1 Inhibitor Iadademstat in combination with a variety of drugs and investigational agents in selected tumor cell lines
The current study was undertaken to assess response to LSD1 inhibitors in combination with standard-of-care drugs and investigational agents in solid tumor complex spheroid models as well as in the K-562 leukemia. Complex spheroids include a stromal component modeled by human endothelial cells (HUVEC) and fibroblasts modeled by human mesenchymal stem cells (MSCs). The concentration ranges selected for each drug and investigational agent were based upon clinically achievable concentrations if the clinical Cmax of the agent was known.
Compounds. The drugs and investigational agents used in this study are listed on Table 1. All of the agents used, including staurosporine (NSC755774) and gemcitabine (NSC613327), were obtained from the Developmental Therapeutics Program, NCI. FDA-approved anticancer drugs are available from the NCI at http://dtp.nci.nih.gov/branches/dscb/oncology_drugset_explanation.html. Drugs and investigational agents were >95% pure by proton nuclear magnetic resonance (NMR) and liquid chromatography/mass spectrometry (LC/MS). Stock solutions were prepared at 400x in DMSO, stored at -70 degrees C, and diluted in fresh medium prior to their use. The final concentration of DMSO in cell culture wells never exceeded 0.25% (v/v). The FDA-approved anticancer drug set is available from the Developmental Therapeutics Program at https://dtp.cancer.gov/organization/dscb/obtaining/available_plates.htm. All drugs and investigational agents were tested over a range starting from a high concentration at or near the clinical Cmax and decreasing in half-log increments. If the clinical Cmax for an agent had not been determined, the highest concentration tested was 10 microM.
Cell Lines. The patient-derived cancer cell (PDC) lines: 292921-168-R-J2-PDC, K24384-001-R-PDC, and 521955-158-R2-J5-PDC pancreatic carcinomas, 556581-035-R-J1 ovarian carcinoma, 324938-238-R-J1-PDC, 855422-203-R-J1-PDC and 883617-216-R-J1-PDC urothelial bladder carcinomas, 743489-274-T-PDC renal cell carcinoma, 138582-R-J1 Merkel cell tumor, K60290-347-R-J1 and K57222-313-R-J1-PDC glioblastomas, 653999-131-R-J2-PDC, LG0703-F948-PDC, and 349418-098-R-PDC non-small cell lung carcinomas, 885512-296-R-J2-PDC, 171881-019-R-J1-PDC breast carcinomas and 186277-243-T-J2-PDC and 233499-124-R-J2-PDC colon carcinomas were obtained from the NCI Patient-Derived Models Repository (PDMR, https://pdmr.cancer.gov). The established cell lines NCI/ADR-RES (RRID:CVCL_14520 and OVCAR-5 (RRID:CVCL_1628) ovarian carcinomas, 786-O (RRID:CVCL_1051) and A498 (RRID:CVCL_A498) renal cell carcinoma, NCI-H211 (ATCC, cat. CRL-5824; RRID:CVCL_1529), NCI-H196 (ATCC, cat. CRL-5823, RRID:CVCL_1509), SW 1271 (ATCC, cat. CRL-2177, RRID:CVCL_1716) and NCI-H1876 (ATCC, cat. CRL-5902, RRID:CVCL_1503) small cell lung carcinomas, MDA-MB-231 (RRID:CVCL_0062) and MDA-MB-468 (RRID:CVCL_0419)breast carcinomas (10-12). Pooled donor human umbilical vein endothelial cells (HUVEC, Lonza, cat. CC-2519) and human mesenchymal stem cells (hMSC, Lonza, cat. PT-2501) were purchased from Lonza (Walkersville, MD).
Cell Culture. All cells were maintained in an incubator at 37 degrees C and 5% CO2 with 95% humidity. The PDC lines were cultured according to standard operating procedures established by the NCI PDMR (https://pdmr.cancer.gov). Briefly all PDCs were thawed and cultured in Matrigel-coated flasks prepared with a working solution of 1X Ham's F-12 nutrient mix, without supplementation (Invitrogen, Waltham, MA, cat. 11765054), 100 U/mL penicillin-streptomycin (Invitrogen, cat. 15140122), and 2.5% Matrigel (Corning Inc., Corning, NY, cat. 354248) for the first three passages. […]

## CC(C)CC(NC(=O)C(Cc1ccccc1)NC(=O)c1cnccn1)B(O)O (stereo not given) + NC1CC1c1ccc(-c2cccc(O)c2)cc1
Second compound 0.1 µM
  IC50: 0.36 nM
Second compound 0.316 µM
  IC50: 0.373 nM
Second compound 1 µM
  IC50: 0.392 nM
Second compound 3.16 µM
  IC50: 0.375 nM
Second compound 10 µM
  IC50: < 0.316 nM
Second compound 0.1 µM, first compound 0.000316 µM
  viability, T/C: 55.9%
Second compound 0.1 µM, first compound 0.001 µM
  viability, T/C: 3.85%
Second compound 0.1 µM, first compound 0.00316 µM
  viability, T/C: 4.59%
Second compound 0.1 µM, first compound 0.01 µM
  viability, T/C: 4.04%
Second compound 0.1 µM, first compound 0.0316 µM
  viability, T/C: 1.83%
Second compound 0.1 µM, first compound 0.1 µM
  viability, T/C: 0.7%
Second compound 0.316 µM, first compound 0.000316 µM
  viability, T/C: 57.6%
Second compound 0.316 µM, first compound 0.001 µM
  viability, T/C: 4.64%
Second compound 0.316 µM, first compound 0.00316 µM
  viability, T/C: 3.15%
Second compound 0.316 µM, first compound 0.01 µM
  viability, T/C: 2.27%
Second compound 0.316 µM, first compound 0.0316 µM
  viability, T/C: 1.73%
Second compound 0.316 µM, first compound 0.1 µM
  viability, T/C: 0.55%
Second compound 1 µM, first compound 0.000316 µM
  viability, T/C: 60.4%
Second compound 1 µM, first compound 0.001 µM
  viability, T/C: 4.41%
Second compound 1 µM, first compound 0.00316 µM
  viability, T/C: 3.18%
Second compound 1 µM, first compound 0.01 µM
  viability, T/C: 2.18%
Second compound 1 µM, first compound 0.0316 µM
  viability, T/C: 1.28%
Second compound 1 µM, first compound 0.1 µM
  viability, T/C: 0.5%
Second compound 3.16 µM, first compound 0.000316 µM
  viability, T/C: 58.1%
Second compound 3.16 µM, first compound 0.001 µM
  viability, T/C: 3.39%
Second compound 3.16 µM, first compound 0.00316 µM
  viability, T/C: 2.47%
Second compound 3.16 µM, first compound 0.01 µM
  viability, T/C: 1.72%
Second compound 3.16 µM, first compound 0.0316 µM
  viability, T/C: 1.87%
Second compound 3.16 µM, first compound 0.1 µM
  viability, T/C: 0.31%
Second compound 10 µM, first compound 0.000316 µM
  viability, T/C: 42.5%
Second compound 10 µM, first compound 0.001 µM
  viability, T/C: 2.54%
Second compound 10 µM, first compound 0.00316 µM
  viability, T/C: 2.01%
Second compound 10 µM, first compound 0.01 µM
  viability, T/C: 1.21%
Second compound 10 µM, first compound 0.0316 µM
  viability, T/C: 0.62%
Second compound 10 µM, first compound 0.1 µM
  viability, T/C: 0.38%

## Nc1ccn(C2OC(CO)C(O)C2(F)F)c(=O)n1 (stereo not given) + NC1CCC(NC2CC2c2ccccc2)CC1
Second compound 0.1 µM
  IC50: > 300 nM
Second compound 0.316 µM
  IC50: > 300 nM
Second compound 1 µM
  IC50: > 300 nM
Second compound 3.16 µM
  IC50: > 300 nM
Second compound 10 µM
  IC50: > 300 nM
Second compound 0.1 µM, first compound 0.000949 µM
  viability, T/C: 104%
Second compound 0.1 µM, first compound 0.003 µM
  viability, T/C: 98.6%
Second compound 0.1 µM, first compound 0.00949 µM
  viability, T/C: 85.9%
Second compound 0.1 µM, first compound 0.03 µM
  viability, T/C: 65.1%
Second compound 0.1 µM, first compound 0.0949 µM
  viability, T/C: 61.8%
Second compound 0.1 µM, first compound 0.3 µM
  viability, T/C: 68.1%
Second compound 0.316 µM, first compound 0.000949 µM
  viability, T/C: 96.8%
Second compound 0.316 µM, first compound 0.003 µM
  viability, T/C: 99.3%
Second compound 0.316 µM, first compound 0.00949 µM
  viability, T/C: 93.7%
Second compound 0.316 µM, first compound 0.03 µM
  viability, T/C: 69.2%
Second compound 0.316 µM, first compound 0.0949 µM
  viability, T/C: 59.2%
Second compound 0.316 µM, first compound 0.3 µM
  viability, T/C: 70.3%
Second compound 1 µM, first compound 0.000949 µM
  viability, T/C: 97.3%
Second compound 1 µM, first compound 0.003 µM
  viability, T/C: 96.7%
Second compound 1 µM, first compound 0.00949 µM
  viability, T/C: 85%
Second compound 1 µM, first compound 0.03 µM
  viability, T/C: 63.9%
Second compound 1 µM, first compound 0.0949 µM
  viability, T/C: 64.2%
Second compound 1 µM, first compound 0.3 µM
  viability, T/C: 63.5%
Second compound 3.16 µM, first compound 0.000949 µM
  viability, T/C: 99.7%
Second compound 3.16 µM, first compound 0.003 µM
  viability, T/C: 103%
Second compound 3.16 µM, first compound 0.00949 µM
  viability, T/C: 88.2%
Second compound 3.16 µM, first compound 0.03 µM
  viability, T/C: 63.8%
Second compound 3.16 µM, first compound 0.0949 µM
  viability, T/C: 63.8%
Second compound 3.16 µM, first compound 0.3 µM
  viability, T/C: 68.3%
Second compound 10 µM, first compound 0.000949 µM
  viability, T/C: 94.2%
Second compound 10 µM, first compound 0.003 µM
  viability, T/C: 108%
Second compound 10 µM, first compound 0.00949 µM
  viability, T/C: 86.5%
Second compound 10 µM, first compound 0.03 µM
  viability, T/C: 75.6%
Second compound 10 µM, first compound 0.0949 µM
  viability, T/C: 65%
Second compound 10 µM, first compound 0.3 µM
  viability, T/C: 67.4%
